From article PMC3951351 (Biochemistry, 2009)

Biological target: T1, MreB (MreB1) (Thermotoga maritima, UniProt Q9WZ57)
T1 sequence (Q9WZ57 1-336): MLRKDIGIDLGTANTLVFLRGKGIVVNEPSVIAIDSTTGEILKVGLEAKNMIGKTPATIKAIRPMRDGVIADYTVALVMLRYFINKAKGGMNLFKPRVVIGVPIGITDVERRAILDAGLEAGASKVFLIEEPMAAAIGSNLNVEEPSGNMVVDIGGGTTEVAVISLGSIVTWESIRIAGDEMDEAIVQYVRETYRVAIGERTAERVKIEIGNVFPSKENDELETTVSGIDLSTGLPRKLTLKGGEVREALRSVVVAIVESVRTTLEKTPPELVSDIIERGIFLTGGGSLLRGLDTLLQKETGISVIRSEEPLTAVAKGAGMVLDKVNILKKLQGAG
Assay: STD NMR titration
Assay type: binding

N=C(N)SCc1ccc(Cl)c(Cl)c1 [A22, S-(3,4-dichlorobenzyl)isothiourea]
Kd: 1.32 ± 0.14 µM
